# Test results: PMC9814091, “The making of a potent L-lactate transport inhibitor” (Communications Chemistry, 2021)
# Where two headings read alike, the source gives them in different places.
# Tests used:
# [1] = molecular target: T1, SfMCT (Syntrophobacter fumaroxidans, UniProt A0LNN5); test: cell-based; format: cell-based; details: for times more potent than BA (starting compound): ratio of Ki values versus BA
# T1 construct: expressed in transfected cells; host or cells: E. coli JA202 (MC4100 glcA::cat lldP::kan) transformed with pEXT20-SfMCT-3C-10His
# T1 sequence (A0LNN5 1-412): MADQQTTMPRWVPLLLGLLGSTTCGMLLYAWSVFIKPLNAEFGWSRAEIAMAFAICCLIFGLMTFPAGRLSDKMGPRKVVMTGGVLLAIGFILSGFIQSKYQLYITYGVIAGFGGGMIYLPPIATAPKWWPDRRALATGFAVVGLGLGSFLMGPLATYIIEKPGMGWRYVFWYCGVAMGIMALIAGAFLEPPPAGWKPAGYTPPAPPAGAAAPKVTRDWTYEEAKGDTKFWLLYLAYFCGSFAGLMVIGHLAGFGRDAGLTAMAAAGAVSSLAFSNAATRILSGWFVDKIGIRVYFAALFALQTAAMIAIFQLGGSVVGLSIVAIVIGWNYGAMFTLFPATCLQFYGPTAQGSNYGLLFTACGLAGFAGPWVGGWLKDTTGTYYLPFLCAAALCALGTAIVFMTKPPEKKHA
# Source text: The previously characterized ligand binding site provides space to accommodate molecules that are larger than TSA. […] Only molecules containing one carboxylate-group were considered (i.e., monocarboxylates) as R280 (TM8) is the only positively-charged residue in the ligand binding site region. […] The binding site also contains hydrophobic and aromatic residues, which can be involved in hydrophobic and π-stacking interactions with bound molecules. Therefore, the focus of the screen was set on aromatic monocarboxylates, which are summarized in Supplementary Fig. 1. To evaluate the inhibitory effect of the selected molecules, an inhibition assay was set up where the transport of [^14C]L-lactate through SfMCT was measured in the absence and presence of different inhibitors at decreasing concentrations. In a first step, the inhibitory effects of BA, as well as hydroxylated and methylated BA derivatives on L-lactate transport, were investigated at a concentration of 500 µM (Fig. 1A, red).
# (§1) Uptake experiments were done as described previously[6],[40]. Overnight precultures of E. coli JA202 (MC4100 glcA::cat lldP::kan)[42], which were transformed with a plasmid carrying SfMCT (pEXT20-SfMCT-3C-10His), were diluted 1:200 into LB-medium supplemented with 100 μg/ml ampicillin. Cultures were grown at 37 °C and 180 r.p.m. in an incubator shaker (Multitron, Infors HT). At OD600 ~0.5, isopropyl-β-D-thiogalactopyranoside was added to the culture to a final concentration of 250 µM to induce SfMCT expression. In the case of E. coli MC4100 (DSM 6574, German Collection of Microorganisms and Cell Cultures), an overnight preculture was diluted 1:200 into LB-medium supplemented with 50 μg/ml streptomycin and grown at 37 °C and 180 r.p.m. in an incubator shaker (Multitron, Infors HT). Bacteria were harvested 4 h post-induction (E. coli JA202) or 6 h post-inoculation (E. coli MC4100) (5200 × g, 10 min, room temperature). The supernatant was discarded and the bacteria were gently resuspended in uptake buffer (20 mM Bis-Tris propane-HCl (pH 6.7), 250 mM KCl). The density of the bacteria suspension was adjusted to OD600 12. Transport experiments were done in a reaction volume of 50 µl, which consisted of 20 µl cell-suspension (2.4 × 10^8 bacteria), 10 µl substrate master mix (67 µM sodium L-lactate spiked with [14C(U)] L-lactic acid sodium salt ([^14C]L-lactate, American Radiolabeled Chemicals) to a specific activity of 0.15 Ci/mmol) and 20 µl monocarboxylate inhibitor solution. […] All monocarboxylate inhibitors were purchased from Merck (i.e., SigmaAldrich) with the exception of 6-methyl-salicylate (6MSA) that was purchased from Fluorochem. Uptake experiments were performed in 2 ml reaction tubes (Eppendorf) at 30 °C under agitation (1000 r.p.m., Thermomixer compact, Eppendorf). After 30 min, reactions were stopped by adding 900 μl stop buffer (20 mM HEPES-NaOH (pH 7.5), 150 mM NaCl) followed by centrifugation (21,000 × g, 4 min, room temperature). Pelleted bacteria were then washed two times with 900 μl stop buffer to remove free radioligand. Finally, bacteria were lysed using 50 μl 5% (w/v) sodium dodecylsulfate and transferred into a 96-well plate (Optiplate, PerkinElmer). 150 µl scintillation cocktail (MicroScint 40, PerkinElmer) were added to each well before measuring each well for 2 min with a scintillation counter (TopCount NXT, PerkinElmer). For data analysis Prism6 (GraphPad Software) was used.
# [2] = test system: E. coli L-lactate permeases (i.e., LldP and GlcA); test: [14C]L-lactate transport into E. coli MC4100 (test for a protonophoric effect); format: cell-based; details: 100 µM compound
# [3] = molecular target: T2, SfMCT Y331F mutant (Syntrophobacter fumaroxidans, UniProt A0LNN5, Y331F); format: cell-based; details: 25 µM 1OHN2C; 10 µM N2C, 3PP, 2M3PP
# T2 construct: expressed in transfected cells; host or cells: E. coli JA202 (inferred: same uptake protocol as wild type)
# Method: as §1, with “Finally, bacteria were lysed using 50 μl 5% (w/v) sodium dodecylsulfate and transferred into a 96-well plate (Optiplate, PerkinElmer). 150 µl scintillation cocktail (MicroScint 40, PerkinElmer) were added to each well before measuring each well for 2 min with a scintillation counter (TopCount NXT, PerkinElmer). For data analysis Prism6 (GraphPad Software) was used.” left out
# [4] = molecular target: T1, SfMCT; test: Transport assay with radiolabeled monocarboxylates as potential SfMCT substrates; format: cell-based; details: 40 µM 14C-labeled compound, 0.1 µCi per reaction
# [5] = molecular target: T1, SfMCT; set-up: method as in PMID 31201333; details: cited from earlier work
# [6] = inhibitor 25 µM, naphthoate derivatives (Fig. 1A, orange)
# [7] = [14C]L-lactate uptake, SfMCT-expressing E. coli JA202, pH 6.7, 30 °C, 30 min, read-out: Ki (inhibition of L-lactate transport)
# [8] = inhibitor 10 µM, hydroxylated and methylated 3PP derivatives (Fig. 1A, magenta)
# [9] = inhibitor 100 µM, methylated SA derivatives and 3OH4MBA (Fig. 1A, blue)
# [10] = inhibitor 500 µM, BA and hydroxylated and methylated BA derivatives (Fig. 1A, red)
# T2 sequence (A0LNN5 whole entry Y331F): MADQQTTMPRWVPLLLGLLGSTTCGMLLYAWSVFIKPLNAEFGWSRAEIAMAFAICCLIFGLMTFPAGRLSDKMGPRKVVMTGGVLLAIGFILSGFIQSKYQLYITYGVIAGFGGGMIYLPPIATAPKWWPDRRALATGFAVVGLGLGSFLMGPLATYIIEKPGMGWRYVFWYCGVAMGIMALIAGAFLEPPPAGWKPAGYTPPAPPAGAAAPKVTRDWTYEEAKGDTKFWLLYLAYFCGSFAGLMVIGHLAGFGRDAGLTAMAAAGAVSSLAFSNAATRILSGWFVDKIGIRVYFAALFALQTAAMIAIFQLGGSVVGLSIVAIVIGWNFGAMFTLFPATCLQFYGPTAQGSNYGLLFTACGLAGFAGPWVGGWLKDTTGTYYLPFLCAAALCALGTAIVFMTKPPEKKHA
compound,measurement,setting,value
"O=C(O)c1ccc2ccccc2c1O [1OHN2C, 1-hydroxy-2-naphthoate]",Ki,[1],16.2 µM
same,inhibitory effect on L-lactate transport in the screen,[1]; [6],strongest reduction of L-lactate transport among the tested naphthoate derivatives
same,effect on [14C]L-lactate transport activity of E. coli MC4100,[2],no significant reduction
same,reduction of L-lactate transport inhibition by the Y331F mutation versus wild type,[3],~ 2 fold
"Cc1ccccc1CCC(=O)O [2M3PP, 3-(2-methylphenyl)-propionate]",Ki,[1]; [7],0.469 µM
same,inhibitory effect on L-lactate transport in the screen,[1]; [8],strongest inhibitory effect on L-lactate transport among the tested methylated derivatives
same,times more potent than BA (starting compound),[1],~1000 times
same,effect on [14C]L-lactate transport activity of E. coli MC4100,[2],no significant reduction
same,reduction of L-lactate transport inhibition by the Y331F mutation versus wild type,[3],~ 2 fold
"O=C(O)CCc1cccc(O)c1 [3OH3PP, 3-(3-hydroxyphenyl)-propionate]",inhibitory effect on L-lactate transport in the screen,[1]; [8],strongest L-lactate transport reduction among the tested hydroxylated derivatives
"Cc1ccc(C(=O)O)cc1O [3OH4MBA, 3-hydroxy-4-methyl-benzoate]",inhibitory effect on L-lactate transport in the screen,[1]; [9],strongly reduced inhibition of L-lactate transport
"O=C(O)CCc1ccccc1 [3PP, 3-phenylpropionate]",Ki,[1],0.812 µM
same,inhibitory effect on L-lactate transport in the molecular ruler experiment,"[1]; BA, PA, 3PP and 4PB compared (Fig. 1A, black)",most potent inhibitor
same,times more potent than BA (starting compound),[1],~ 530 times
same,effect on [14C]L-lactate transport activity of E. coli MC4100,[2],no significant reduction
same,transport of the radiolabeled compound by SfMCT,[4],does not transport
"Cc1ccc(C(=O)O)cc1 [4MBA, 4-methyl-benzoate]",Ki,[1],13.4 µM
same,inhibitory effect on L-lactate transport in the screen,[1]; [10],strongest reduction of L-lactate transport activity
same,times more potent than BA (starting compound),[1],~ 30 times
"Cc1ccc(C(=O)O)c(O)c1 [4MSA, 4-methyl-salicylate]",Ki,[1],24.4 µM
same,inhibitory effect on L-lactate transport in the screen,[1]; [9],strongest reduction of L-lactate transport among the methylated SA-derivatives
"O=C(O)c1ccccc1 [BA, benzoate]",Ki,[1],431 µM
"O=C(O)/C=C/c1ccccc1 [CA, trans-cinnamate]",Ki,[1],2.5 µM
"N#CC(C#N)=NNc1cccc(Cl)c1 [CCCP, carbonyl cyanide 3-chlorophenylhydrazone, reference compound]",effect on [14C]L-lactate transport activity of E. coli MC4100,[2],reduced the uptake activity almost
"O=C(O)c1ccc2ccccc2c1 [N2C, 2-naphthoate]",Ki,[1]; [7],2.4 µM
same,inhibitory effect on L-lactate transport in the screen,[1]; [6],strongest reduction of L-lactate transport among the tested naphthoate derivatives
same,effect on [14C]L-lactate transport activity of E. coli MC4100,[2],no significant reduction
same,reduction of L-lactate transport inhibition by the Y331F mutation versus wild type,[3],~ 2 fold
"O=C(O)c1ccccc1O [SA, salicylate]",Ki,[1],362 µM
same,inhibitory effect on L-lactate transport in the screen,[1]; [10],strongest decrease in L-lactate transport activity
same,transport of the radiolabeled compound by SfMCT,[4],does not transport
"O=C(O)c1ccccc1S [TSA, thiosalicylate]",transport of the compound by SfMCT,[5],non-transported
